This note sets out measurements from patent US8686150B2 (Sanofi, priority 2011, dated 2014).

For the test, the target named is T1, human full-length recombinant PKC βII (Homo sapiens, UniProt P05771).
T1 construct: Active human full-length recombinant PKC βII; purchased Invitrogen GmbH, Darmstadt, Germany
T1 sequence (P05771 1-673 isoform P05771-2): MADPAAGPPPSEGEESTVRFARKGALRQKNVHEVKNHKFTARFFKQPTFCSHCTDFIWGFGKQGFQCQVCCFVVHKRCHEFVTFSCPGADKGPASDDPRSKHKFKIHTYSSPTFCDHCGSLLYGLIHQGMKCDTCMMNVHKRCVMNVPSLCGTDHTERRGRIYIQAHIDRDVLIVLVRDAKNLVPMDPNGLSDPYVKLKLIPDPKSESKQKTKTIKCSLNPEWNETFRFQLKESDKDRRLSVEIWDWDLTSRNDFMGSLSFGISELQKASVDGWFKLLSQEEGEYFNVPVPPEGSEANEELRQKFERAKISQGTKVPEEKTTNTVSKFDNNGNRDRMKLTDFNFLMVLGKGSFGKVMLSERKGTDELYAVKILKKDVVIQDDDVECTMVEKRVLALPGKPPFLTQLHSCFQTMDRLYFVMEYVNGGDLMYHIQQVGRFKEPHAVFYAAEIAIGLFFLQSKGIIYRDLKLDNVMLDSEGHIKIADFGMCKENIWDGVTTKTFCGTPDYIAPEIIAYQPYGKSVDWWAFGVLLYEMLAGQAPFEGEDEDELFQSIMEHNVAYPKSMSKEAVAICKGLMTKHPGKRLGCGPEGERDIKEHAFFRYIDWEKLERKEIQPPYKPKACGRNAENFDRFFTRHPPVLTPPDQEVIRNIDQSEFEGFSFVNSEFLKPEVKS
In words: Determination of PKC βII inhibition (Caliper mobility-shift kinase assay, Fluorescein-RFARKGSLRQKNV peptide substrate). In kind it is biochemical. The conditions noted are these: example compounds at a final concentration of 1.14 μM (±0.15 μM). In a few lines: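 Compounds were tested at 1.14 μM final. Enzyme was activated by PS, DAG and CaCl2 in Hepes pH 7.4 with MgCl2, with substrate 3 μM and ATP 120 μM as pre-mix concentrations. After 60 min at 32 °C and an EDTA stop, Caliper separation gave fractional turnover, which was normalised to no-compound and no-enzyme controls.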
What is called inhibition is the relative decrease from the control value, in per cent. On to `CC[C@H]1CNCCN1C(=O)c1cc(-c2ccc(O)cc2)nc2[nH]nc(C)c12` [Example 20, ((S)-2-Ethyl-piperazin-1-yl)-[6-(4-hydroxy-phenyl)-3-methyl-1H-pyrazolo[3,4-b]pyridin-4-yl]-methanone], for which the inhibition at 1.14 µM came to 110%.
For `Cc1n[nH]c2nc(-c3ccc(O)c(F)c3)cc(C(=O)N3CCC4(CNCCO4)C3)c12` (stereo not drawn) [Example 323, [6-(3-Fluoro-4-hydroxy-phenyl)-3-methyl-1H-pyrazolo[3,4-b]pyridin-4-yl]-(6-oxa-2,9-diaza-spiro[4.5]dec-2-yl)-methanone], the inhibition at 1.14 µM worked out at 42%.
Still for that read-out and setting: then `COc1cc(O)ccc1-c1cc(C(=O)N2CCNC[C@@H]2C)c2c(C)n[nH]c2n1` [Example 18, [6-(4-Hydroxy-2-methoxy-phenyl)-3-methyl-1H-pyrazolo[3,4-b]pyridin-4-yl]-((S)-2-methyl-piperazin-1-yl)-methanone], with 94%.
In the case of `C[C@@H]1CN(C(=O)c2cc(-c3ccc(O)cc3)nc3[nH]nc(C(F)(F)F)c23)CCN1` [Example 401, [6-(4-Hydroxy-phenyl)-3-trifluoromethyl-1H-pyrazolo[3,4-b]pyridin-4-yl]-((R)-3-methyl-piperazin-1-yl)-methanone], the inhibition at 1.14 µM came to 71%.
Same read-out and setting: then `Cc1n[nH]c2nc(-c3ccc(O)cc3)cc(C(=O)N3CC[C@H](N)C3)c12` [Example 246, ((S)-3-Amino-pyrrolidin-1-yl)-[6-(4-hydroxy-phenyl)-3-methyl-1H-pyrazolo[3,4-b]pyridin-4-yl]-methanone], with 88%.
Turning to `N[C@H]1CCN(C(=O)c2cc(-c3ccc(O)cc3)nc3[nH]nc(C(F)(F)F)c23)C1` [Example 404, ((S)-3-Amino-pyrrolidin-1-yl)-[6-(4-hydroxy-phenyl)-3-trifluoromethyl-1H-pyrazolo[3,4-b]pyridin-4-yl]-methanone], the inhibition at 1.14 µM turned out to be 31%.
Turning to `Cc1n[nH]c2nc(-c3ccc(O)cc3)cc(C(=O)N3CCNCC3c3ccc(Br)cc3)c12` (stereo not drawn) [Example 89, [2-(4-Bromo-phenyl)-piperazin-1-yl]-[6-(4-hydroxy-phenyl)-3-methyl-1H-pyrazolo[3,4-b]pyridin-4-yl]-methanone], the inhibition at 1.14 µM worked out at 92%.
Same read-out and setting: in the case of `CCC[C@H]1CN(C(=O)c2cc(-c3ccc(O)cc3)nc3[nH]nc(C)c23)CCN1` [Example 68, [6-(4-Hydroxy-phenyl)-3-methyl-1H-pyrazolo[3,4-b]pyridin-4-yl]-((S)-3-propyl-piperazin-1-yl)-methanone] it was 88%; in that of `Cc1n[nH]c2nc(-c3ccc(O)cc3)cc(C(=O)N3CC[C@@H](C4(N)CC4)C3)c12` [Example 203, [(R)-3-(1-Amino-cyclopropyl)-pyrrolidin-1-yl]-[6-(4-hydroxy-phenyl)-3-methyl-1H-pyrazolo[3,4-b]pyridin-4-yl]-methanone], 71%.
The same measure, in the same setting: in the case of `CO[C@H]1CNC[C@@H]1NC(=O)c1cc(-c2ccc(O)cc2)nc2[nH]nc(C)c12` (racemic) [Example 78, 6-(4-Hydroxy-phenyl)-3-methyl-1H-pyrazolo[3,4-b]pyridine-4-carboxylic acid ((trans)-4-methoxy-pyrrolidin-3-yl)-amide] it was 99%.
In general, % Inhibition refers to the relative decrease from the control value, in per cent. In the case of `Cc1n[nH]c2nc(-c3ccc(O)cc3)cc(C(=O)N3C[C@H](C)NC[C@H]3C)c12` [Example 81, ((2R,5S)-2,5-Dimethyl-piperazin-1-yl)-[6-(4-hydroxy-phenyl)-3-methyl-1H-pyrazolo[3,4-b]pyridin-4-yl]-methanone], the “% Inhibition” value stood at 76%.
Turning to `Cc1n[nH]c2nc(-c3ccc(O)cc3)cc(C(=O)NC3CCNC4(CCC4)C3)c12` (stereo not drawn) [Example 204, 6-(4-Hydroxy-phenyl)-3-methyl-1H-pyrazolo[3,4-b]pyridine-4-carboxylic acid (5-aza-spiro[3.5]non-8-yl)-amide], the inhibition at 1.14 µM was 82%.
The same measure, in the same setting: then `Cc1n[nH]c2nc(-c3ccc(O)cc3)cc(C(=O)N3CCNC[C@H]3c3ccccc3)c12` [Example 28, [6-(4-Hydroxy-phenyl)-3-methyl-1H-pyrazolo[3,4-b]pyridin-4-yl]-((R)-2-phenyl-piperazin-1-yl)-methanone], with 99%; and `Cc1n[nH]c2nc(-c3ccc(O)cc3)cc(C(=O)N(C)C3CCN(C)CC3)c12` [Example 272, 6-(4-Hydroxy-phenyl)-3-methyl-1H-pyrazolo[3,4-b]pyridine-4-carboxylic acid methyl-(1-methyl-piperidin-4-yl)-amide], with 85%.
On to `Cc1n[nH]c2nc(-c3ccc(O)cc3)cc(C(=O)N3CCNCC3c3ccco3)c12` (stereo not drawn) [Example 30, (2-Furan-2-yl-piperazin-1-yl)-[6-(4-hydroxy-phenyl)-3-methyl-1H-pyrazolo[3,4-b]pyridin-4-yl]-methanone], for which the inhibition at 1.14 µM was 96%.
Same read-out and setting: then `CN[C@H]1CN(C(=O)c2cc(-c3ccc(O)c(F)c3)nc3[nH]nc(C)c23)CC[C@H]1C` (racemic) [Example 312, [6-(3-Fluoro-4-hydroxy-phenyl)-3-methyl-1H-pyrazolo[3,4-b]pyridin-4-yl]-(cis-4-methyl-3-methylamino-piperidin-1-yl)-methanone], with 54%; and `CCCC1(NC(=O)c2cc(-c3ccc(O)cc3)nc3[nH]nc(C)c23)CCNCC1` [Example 118, 6-(4-Hydroxy-phenyl)-3-methyl-1H-pyrazolo[3,4-b]pyridine-4-carboxylic acid (4-propyl-piperidin-4-yl)-amide], with 98%; and `Cc1n[nH]c2nc(-c3ccc(O)cc3)cc(C(=O)N3CCC(Nc4ccccc4)C3)c12` (stereo not drawn) [Example 385, [6-(4-Hydroxy-phenyl)-3-methyl-1H-pyrazolo[3,4-b]pyridin-4-yl]-(3-phenylamino-pyrrolidin-1-yl)-methanone], with 24%.
For `Cc1n[nH]c2nc(-c3ccc(O)c(F)c3)cc(C(=O)N3CC(=O)NC(C(C)C)C3)c12` (stereo not drawn) [Example 368, 4-[6-(3-Fluoro-4-hydroxy-phenyl)-3-methyl-1H-pyrazolo[3,4-b]pyridine-4-carbonyl]-6-isopropyl-piperazin-2-one], the inhibition at 1.14 µM worked out at 58%.
`Cc1cc(O)ccc1-c1cc(C(=O)NCC2(N)CCCCCC2)c2c(C)n[nH]c2n1` [Example 148, 6-(4-Hydroxy-2-methyl-phenyl)-3-methyl-1H-pyrazolo[3,4-b]pyridine-4-carboxylic acid (1-amino-cycloheptylmethyl)-amide]: the inhibition at 1.14 µM turned out to be 85%.
For the compound `Cc1n[nH]c2nc(-c3ccc(O)cc3F)cc(C(=O)N3CCNCC3(C)c3ccccc3)c12` (stereo not drawn) [Example 435, [6-(2-Fluoro-4-hydroxy-phenyl)-3-methyl-1H-pyrazolo[3,4-b]pyridin-4-yl]-(2-methyl-2-phenyl-piperazin-1-yl)-methanone], the inhibition at 1.14 µM was found to be 97%.
For the compound `Cc1n[nH]c2nc(-c3ccc(O)c(F)c3)cc(C(=O)N3CCC4CNCC43)c12` (stereo not drawn) [Example 308, [6-(3-Fluoro-4-hydroxy-phenyl)-3-methyl-1H-pyrazolo[3,4-b]pyridin-4-yl]-(hexahydro-pyrrolo[3,4-b]pyrrol-1-yl)-methanone], the inhibition at 1.14 µM worked out at 60%.
The same measure, in the same setting: in the case of `Cc1n[nH]c2nc(-c3ccc(O)cc3)cc(C(=O)N[C@H]3C[C@H](N)C3)c12` [Example 252, 6-(4-Hydroxy-phenyl)-3-methyl-1H-pyrazolo[3,4-b]pyridine-4-carboxylic acid (trans-3-amino-cyclobutyl)-amide] it was 72%.
Same read-out and setting: then `Cc1n[nH]c2nc(-c3ccc(O)cc3)cc(C(=O)N3CCCC4(CNCCO4)C3)c12` (stereo not drawn) [Example 262, [6-(4-Hydroxy-phenyl)-3-methyl-1H-pyrazolo[3,4-b]pyridin-4-yl]-(1-oxa-4,8-diaza-spiro[5.5]undec-8-yl)-methanone], with 59%; and `Cc1n[nH]c2nc(-c3ccc(O)c(F)c3)cc(C(=O)NCC(C)(c3ccccn3)N3CCCC3)c12` (stereo not drawn) [Example 370, 6-(3-Fluoro-4-hydroxy-phenyl)-3-methyl-1H-pyrazolo[3,4-b]pyridine-4-carboxylic acid (2-pyridin-2-yl-2-pyrrolidin-1-yl-propyl)-amide], with 48%; and `Cc1n[nH]c2nc(-c3ccc(O)cc3)cc(C(=O)NCCC3CCNCC3)c12` [Example 395, 6-(4-Hydroxy-phenyl)-3-methyl-1H-pyrazolo[3,4-b]pyridine-4-carboxylic acid (2-piperidin-4-yl-ethyl)-amide], with 42%.
As to `Cc1n[nH]c2nc(-c3ccc(O)cc3)cc(C(=O)N3CC4CN(Cc5ccccc5)CC4C3)c12` (stereo not drawn) [Example 386, (5-Benzyl-hexahydro-pyrrolo[3,4-c]pyrrol-2-yl)-[6-(4-hydroxy-phenyl)-3-methyl-1H-pyrazolo[3,4-b]pyridin-4-yl]-methanone], the inhibition at 1.14 µM stood at 51%.
Same read-out and setting: in the case of `C[C@H]1CN(C(=O)c2cc(-c3ccc(O)cc3)nc3[nH]nc(C(F)(F)F)c23)CCN1` [Example 397, [6-(4-Hydroxy-phenyl)-3-trifluoromethyl-1H-pyrazolo[3,4-b]pyridin-4-yl]-((S)-3-methyl-piperazin-1-yl)-methanone] it was 73%; in that of `Cc1n[nH]c2nc(-c3ccc(O)cc3)cc(C(=O)N[C@H]3C[C@@H]3N)c12` (racemic) [Example 251, 6-(4-Hydroxy-phenyl)-3-methyl-1H-pyrazolo[3,4-b]pyridine-4-carboxylic acid (trans-2-amino-cyclopropyl)-amide], 53%.
On the same count and under the same terms, then `Cc1n[nH]c2nc(-c3ccc(O)cc3F)cc(C(=O)N3CCNCC34CCCC4)c12` [Example 433, (6,9-Diaza-spiro[4.5]dec-6-yl)-[6-(2-fluoro-4-hydroxy-phenyl)-3-methyl-1H-pyrazolo[3,4-b]pyridin-4-yl]-methanone], with 98%.
